This assay can be described thus: Evaluation of taste (bitter, sour, sweet) by panellists, orange juice with and without added 4-hydroxyflavanone. The format is in vivo. The text has this:
Masking the perception of sour and the bitterness in orange juice, which was obtained from premature fruits and/or HLB infected fruits with at least 5 ppm limonin
A commercial orange juice was used for the experiments, which according to an analysis contains 7.8 ppm limonin and was regularly evaluated as too bitter from the panellists. The panellists (n=6) thereby evaluate the 3 attributes “sweet”, “bitter” and “sour” on an unstructured scale of 0 (no taste) to 10 (strong taste). In one sample, the panellists received the orange juice alone, in a further sample, they received the orange juice which was supplemented with an amount of 4-hydroxyflavanone as listed in one of the tables. Thereby, the order was arbitrary and not known to the panellists before.

Setting [1] is: 10 ppm in the examined orange juice.
The mark [2] stands for this setting: 10 ppm racemic eriodictyol vs orange juice (7.8 ppm limonin) alone, Example 2.
[3] abbreviates: B (10 ppm racemic eriodictyol) vs A (orange juice 7.8 ppm limonin alone), Example 5.
Setting [4] is: orange juice containing 7.8 ppm limonin + 10 ppm racemic eriodictyol, scale 0-10, n=6 panellists, Example 2.
The mark [5] stands for this setting: sample B: orange juice containing 7.8 ppm limonin + 10 ppm racemic eriodictyol, scale 0-10, Example 5.
[6] abbreviates: 30 ppm in the examined orange juice.
Setting [7] is: 30 ppm racemic homoeriodictyol-sodium-salt vs orange juice (7.8 ppm limonin) alone, Example 4.
Where [8] appears, read: 50 ppm racemic homoeriodictyol-sodium-salt vs orange juice (7.8 ppm limonin) alone, Example 3.
Setting [9] is: orange juice containing 7.8 ppm limonin + 30 ppm racemic homoeriodictyol-sodium-salt, scale 0-10, n=6 panellists, Example 4.
Setting [10] is: orange juice containing 7.8 ppm limonin + 50 ppm racemic homoeriodictyol-sodium-salt, scale 0-10, n=6 panellists, Example 3.
[11] abbreviates: 20 ppm in the examined orange juice.
Setting [12] is: 20 ppm racemic naringenin vs orange juice (7.8 ppm limonin) alone, Example 1.
The mark [13] stands for this setting: orange juice containing 7.8 ppm limonin + 20 ppm racemic naringenin, scale 0-10, n=6 panellists, Example 1.

Counter-ions that a name gives are not always drawn.

Turning to `O=C1C[C@@H](c2ccc(O)c(O)c2)Oc2cc(O)cc(O)c21` (racemic) [racemic eriodictyol, eriodictyol], under setting [1], the “effect on bitter taste (in words)” value is “strong reduction”, the “effect on sour perception (in words)” value is listed as “decreased” and the “effect on sweet impression (in words)” value is “increased”. Moreover, under setting [2], the “Relative change Bitter” value is given as −32%, the “Relative change Sour” value is on record as −20% and the “Relative change Sweet” value is recorded as “+28%”. Further, under setting [3], the “Relative change A/B Bitter” value is given as −21%, the “Relative change A/B Sour” value was −12% and the “Relative change A/B Sweet” value is “+40%”. Besides, under setting [4], the “Evaluation (0-10) Bitter” value is given as 3.2, the “Evaluation (0-10) Sour” value is recorded as 4.4 and the “Evaluation (0-10) Sweet” value stood at 5.1. In addition, under setting [5], the “Evaluation (0-10) Bitter” value was determined as 3.9, the “Evaluation (0-10) Sour” value turned out to be 4.4 and the “Evaluation (0-10) Sweet” value came out at 4.2.
In the case of `COc1cc([C@@H]2CC(=O)c3c(O)cc(O)cc3O2)ccc1O` (racemic) [racemic homoeriodictyol-sodium-salt, homoeriodictyol-sodium-salt], under setting [6], the “effect on bitter taste (in words)” value is listed as “clear reduction”, the “effect on sour impression (in words)” value is “decreases” and the “effect on sweet taste (in words)” value was “does not influence”. In addition, under setting [7], the “Relative change Bitter” value is on record as −27%, the “Relative change Sour” value is −12% and the “Relative change Sweet” value is “+3%”. The “effect on sour perception (in words)” value (50 ppm in the examined orange juice) is reported as “influenced more strongly”. Under setting [8], the “Relative change Bitter” value is −13%, the “Relative change Sour” value is given as −23% and the “Relative change Sweet” value was “+24%”. Also, under setting [9], the “Evaluation (0-10) Bitter” value is 3.2, the “Evaluation (0-10) Sour” value is given as 4.1 and the “Evaluation (0-10) Sweet” value is reported as 4.8. Besides, under setting [10], the “Evaluation (0-10) Bitter” value is 4.1, the “Evaluation (0-10) Sour” value is on record as 3.3 and the “Evaluation (0-10) Sweet” value came to 4.0.
For `O=C1C[C@@H](c2ccc(O)cc2)Oc2cc(O)cc(O)c21` (racemic) [racemic naringenin, naringenin], under setting [11], the “effect on bitter taste (in words)” value is reported as “clear reduction”, the “effect on sour impression (in words)” value is given as “decrease” and the “effect on sweet impression (in words)” value is “increase”. For the same compound, under setting [12], the “Relative change Bitter” value is on record as −31%, the “Relative change Sour” value is −25% and the “Relative change Sweet” value is “+30%”. Also, the “Evaluation (0-10) Bitter” value (orange juice containing 7.8 ppm limonin + 20 ppm racemic naringenin, scale 0 (no taste) to 10 (strong taste), n=6 panellists, Example 1) was determined as 3.4. Moreover, under setting [13], the “Evaluation (0-10) Sour” value was determined as 3.3 and the “Evaluation (0-10) Sweet” value came out at 5.2.

(Values after patent US10765134B2, “Foodstuff containing citrus products having added 4-hydroxyflavanones” (SYMRISE AG, priority 2015, dated 2020).)
